Assay results as given in patent US9226916B2, “Pyrrolidine derivatives” (HOFFMANN-LA ROCHE INC., priority 2009, dated 2016).
Where two headings read alike, the source gives them in different places.

Columns and labels:
[1] = biological target: T1, recombinant human NK3 receptor (Homo sapiens, UniProt P29371); experiment: [3H]SR142801 competition binding assay
T1 construct: expressed in transfected cells; host or cells: HEK293 cells, transient expression; membranes
T1 sequence (P29371 1-465): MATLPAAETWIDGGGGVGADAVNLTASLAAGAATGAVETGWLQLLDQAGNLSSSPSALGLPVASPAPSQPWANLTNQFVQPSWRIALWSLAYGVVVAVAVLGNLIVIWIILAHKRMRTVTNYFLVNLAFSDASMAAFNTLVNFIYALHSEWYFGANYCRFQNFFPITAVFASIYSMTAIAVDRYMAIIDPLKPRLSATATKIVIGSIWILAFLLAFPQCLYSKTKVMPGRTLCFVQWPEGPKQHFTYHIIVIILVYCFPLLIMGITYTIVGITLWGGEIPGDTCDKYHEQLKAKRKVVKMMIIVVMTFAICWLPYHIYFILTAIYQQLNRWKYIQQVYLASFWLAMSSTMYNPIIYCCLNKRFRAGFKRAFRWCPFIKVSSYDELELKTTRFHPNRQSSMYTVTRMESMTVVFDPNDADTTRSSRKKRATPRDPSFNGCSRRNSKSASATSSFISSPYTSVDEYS

[2] = biological target: T2, NK3 tachykinin receptor (Homo sapiens, UniProt P29371); conditions: phase II trial, cited from earlier work
T2 sequence (P29371 1-465): T1 sequence (P29371 1-465)

Molecule | Ki [1] [nM] | also measured
CN(C(=O)Oc1ccncc1)[C@@H]1CN(C(=O)C2CCN(C(=O)C3(C)CC3)CC2)C[C@H]1c1ccc(Cl)c(Cl)c1 [Example 297, {(3S,4R)-4-(3,4-Dichloro-phenyl)-1-[1-(1-methyl-cyclopropanecarbonyl)-piperidine-4-carbonyl]-pyrrolidin-3-yl}-methyl-carbamic acid pyridin-4-yl ester] | 5.9 | 
CN(C(=O)Oc1cccc(Cl)n1)[C@@H]1CN(C(=O)C2CCN(C(=O)C3(C)CC3)CC2)C[C@H]1c1ccc(Cl)c(Cl)c1 [Example 300, {(3S,4R)-4-(3,4-Dichloro-phenyl)-1-[1-(1-methyl-cyclopropanecarbonyl)-piperidine-4-carbonyl]-pyrrolidin-3-yl}-methyl-carbamic acid 6-chloro-pyridin-2-yl ester] | 2.6 | 
CN(C(=O)Oc1ccc(F)cc1)[C@@H]1CN(C(=O)C2CCN(c3ccc(C(F)(F)F)cn3)CC2)C[C@H]1c1ccc(Cl)c(Cl)c1 [Example 306, [(3S,4R)-4-(3,4-Dichloro-phenyl)-1-(5′-trifluoromethyl-3,4,5,6-tetrahydro-2H-[1,2′]bipyridinyl-4-carbonyl)-pyrrolidin-3-yl]-methyl-carbamic acid 4-fluoro-phenyl ester] | 0.7 | 
CN(C(=O)Oc1ccc(F)cc1)[C@@H]1CN(C(=O)C2CCN(c3ccc(Cl)cn3)CC2)C[C@H]1c1ccc(Cl)c(Cl)c1 [Example 308, [(3S,4R)-1-(5′-Chloro-3,4,5,6-tetrahydro-2H-[1,2′]bipyridinyl-4-carbonyl)-4-(3,4-dichloro-phenyl)-pyrrolidin-3-yl]-methyl-carbamic acid 4-fluoro-phenyl ester] | 0.2 | 
CN(C(=O)Oc1ccc(F)cc1)[C@@H]1CN(C(=O)C2CCN(c3ccc(F)cn3)CC2)C[C@H]1c1ccc(Cl)c(Cl)c1 [Example 309, [(3S,4R)-4-(3,4-Dichloro-phenyl)-1-(5′-fluoro-3,4,5,6-tetrahydro-2H-[1,2′]bipyridinyl-4-carbonyl)-pyrrolidin-3-yl]-methyl-carbamic acid 4-fluoro-phenyl ester] | 0.5 | 
CN(C(=O)Oc1ccc(F)cc1)[C@@H]1CN(C(=O)C2CCN(c3ccc(C(N)=O)cn3)CC2)C[C@H]1c1ccc(Cl)c(Cl)c1 [Example 310, [(3S,4R)-1-(5′-Carbamoyl-3,4,5,6-tetrahydro-2H-[1,2′]bipyridinyl-4-carbonyl)-4-(3,4-dichloro-phenyl)-pyrrolidin-3-yl]-methyl-carbamic acid 4-fluoro-phenyl ester] | 0.6 | 
CN(C(=O)Oc1ccc(F)cc1)[C@@H]1CN(C(=O)C2CCN(c3ccc(F)cn3)CC2)C[C@H]1c1ccc(Cl)c(F)c1 [Example 311, [(3S,4R)-4-(4-Chloro-3-fluoro-phenyl)-1-(5′-fluoro-3,4,5,6-tetrahydro-2H-[1,2′]bipyridinyl-4-carbonyl)-pyrrolidin-3-yl]-methyl-carbamic acid 4-fluoro-phenyl ester] | 0.9 | 
CN(C(=O)Oc1ccc(F)cc1)[C@@H]1CN(C(=O)C2CCN(c3ccc(Cl)cn3)CC2)C[C@H]1c1ccc(Cl)c(F)c1 [Example 312, [(3S,4R)-4-(4-Chloro-3-fluoro-phenyl)-1-(5′-chloro-3,4,5,6-tetrahydro-2H-[1,2′]bipyridinyl-4-carbonyl)-pyrrolidin-3-yl]-methyl-carbamic acid 4-fluoro-phenyl ester] | 0.4 | 
CN(C(=O)Oc1ccc(F)cc1)[C@@H]1CN(C(=O)C2CCN(c3ccc(C(F)(F)F)cn3)CC2)C[C@H]1c1ccc(Cl)c(F)c1 [Example 313, [(3S,4R)-4-(4-Chloro-3-fluoro-phenyl)-1-(5′-trifluoromethyl-3,4,5,6-tetrahydro-2H-[1,2′]bipyridinyl-4-carbonyl)-pyrrolidin-3-yl]-methyl-carbamic acid 4-fluoro-phenyl ester] | 0.9 | 
CC(=O)c1ccc(N2CCC(C(=O)N3C[C@@H](N(C)C(=O)Oc4ccc(F)cc4)[C@H](c4ccc(Cl)c(F)c4)C3)CC2)nc1 [Example 314, [(3S,4R)-1-(5′-Acetyl-3,4,5,6-tetrahydro-2H-[1,2′]bipyridinyl-4-carbonyl)-4-(4-chloro-3-fluoro-phenyl)-pyrrolidin-3-yl]-methyl-carbamic acid 4-fluoro-phenyl ester] | 0.6 | 
CN(C(=O)Oc1ccc(F)cc1)[C@@H]1CN(C(=O)C2CCN(c3ccc(F)cn3)CC2)C[C@H]1c1ccc(F)c(Cl)c1 [Example 315, [(3S,4R)-4-(3-Chloro-4-fluoro-phenyl)-1-(5′-fluoro-3,4,5,6-tetrahydro-2H-[1,2′]bipyridinyl-4-carbonyl)-pyrrolidin-3-yl]-methyl-carbamic acid 4-fluoro-phenyl ester] | 1.7 | 
CN(C(=O)Oc1ccc(F)cc1)[C@@H]1CN(C(=O)C2CCN(c3ccc(Cl)cn3)CC2)C[C@H]1c1ccc(F)c(Cl)c1 [Example 316, [(3S,4R)-4-(3-Chloro-4-fluoro-phenyl)-1-(5′-chloro-3,4,5,6-tetrahydro-2H-[1,2′]bipyridinyl-4-carbonyl)-pyrrolidin-3-yl]-methyl-carbamic acid 4-fluoro-phenyl ester] | 0.9 | 
CN(C(=O)Oc1ccc(F)cc1)[C@@H]1CN(C(=O)C2CCN(c3ccc(C(F)(F)F)cn3)CC2)C[C@H]1c1ccc(F)c(Cl)c1 [Example 317, [(3S,4R)-4-(3-Chloro-4-fluoro-phenyl)-1-(5′-trifluoromethyl-3,4,5,6-tetrahydro-2H-[1,2′]bipyridinyl-4-carbonyl)-pyrrolidin-3-yl]-methyl-carbamic acid 4-fluoro-phenyl ester] | 1.6 | 
CC(=O)c1ccc(N2CCC(C(=O)N3C[C@@H](N(C)C(=O)Oc4ccc(F)cc4)[C@H](c4ccc(F)c(Cl)c4)C3)CC2)nc1 [Example 318, [(3S,4R)-1-(5′-Acetyl-3,4,5,6-tetrahydro-2H-[1,2′]bipyridinyl-4-carbonyl)-4-(3-chloro-4-fluoro-phenyl)-pyrrolidin-3-yl]-methyl-carbamic acid 4-fluoro-phenyl ester] | 0.7 | 
CN(C(=O)Oc1ccc(F)cc1)[C@@H]1CN(C(=O)C2CCN(C(=O)[C@@H]3CC(=O)N3)CC2)C[C@H]1c1ccc(Cl)cc1 [Example 319, {(3S,4R)-4-(4-Chloro-phenyl)-1-[1-((S)-4-oxo-azetidine-2-carbonyl)-piperidine-4-carbonyl]-pyrrolidin-3-yl}-methyl-carbamic acid 4-fluoro-phenyl ester] | 10.6 | 
CN(C(=O)Oc1ccc(F)cc1)[C@@H]1CN(C(=O)C2CCN(c3ccc(O)cn3)CC2)C[C@H]1c1ccc(Cl)cc1 [Example 320, [(3S,4R)-4-(4-Chloro-phenyl)-1-(5′-hydroxy-3,4,5,6-tetrahydro-2H-[1,2′]bipyridinyl-4-carbonyl)-pyrrolidin-3-yl]-methyl-carbamic acid 4-fluoro-phenyl ester] | 6.7 | 
CC(=O)Oc1ccc(N2CCC(C(=O)N3C[C@@H](N(C)C(=O)Oc4ccc(F)cc4)[C@H](c4ccc(Cl)cc4)C3)CC2)nc1 [Example 321, Acetic acid 4-{(3R,4S)-3-(4-chloro-phenyl)-4-[(4-fluoro-phenoxycarbonyl)-methyl-amino]-pyrrolidine-1-carbonyl}-3,4,5,6-tetrahydro-2H-[1,2′]bipyridinyl-5′-yl ester] | 2.4 | 
CC(=O)N(C)C1(c2ccccc2)CCN(CCC[C@]2(c3ccc(Cl)c(Cl)c3)CCCN(C(=O)c3ccccc3)C2)CC1 [SR 142,801, Osanetant] |  | activity in the treatment of negative symptoms of schizophrenia ([2]; negative symptoms (depression, anhedonia, social isolation, memory and attention deficits)): inactive; activity on positive symptoms of schizophrenia ([2]; positive symptoms (altered behaviour, delusion, hallucinations, extreme emotions, excited motor activity, incoherent speech)): active
rac-{(3R,4S)-4-(3,4-Dichloro-phenyl)-1-[1-(1-methyl-cyclopropanecarbonyl)-piperidine-4-carbonyl]-pyrrolidin-3-yl}-methyl-carbamic acid (S)-1-(tetrahydro-furan-2-yl)methyl ester and rac-{(3R,4S)-4-(3,4-Dichloro-phenyl)-1-[1-(1-methyl-cyclopropanecarbonyl)-piperidine-4-carbonyl]-pyrrolidin-3-yl}-methyl-carbamic acid (R)-1-(tetrahydro-furan-2-yl)methyl ester [Example 84] |  | Ki ([1]; read-out: Data Ki): 18.3 nM
